Structures can show the parent of a compound that is named as a salt.
Work on `O=C(c1cc(N2CCOCC2)ccn1)N(O)Cc1ccccc1` yielded a melting point of 105 to 110 °C.
`Cl.O=C(c1cc(N2CCOCC2)ccn1)N(O)Cc1ccccc1` gave a melting point of 185 to 190 °C.
Molecule `C[C@@H]1CN(c2ccnc(C(=O)N(O)Cc3ccccc3)c2)C[C@H](C)O1` has a melting point of 180 to 185 °C.
For `O=C(NO)c1cc(N2CCOCC2)ccn1`, the melting point was 215 to 220 °C (dec.).
Molecule `O=C(c1ccc(N2CCCCC2)cn1)N(O)Cc1ccccc1` has a melting point of 110 to 115 °C.
Work on `O=C(NOCc1ccccc1)c1ccc(-c2ccccc2)cn1` yielded a melting point of 155 to 160 °C.
Work on `CCONC(=O)c1ccc(-c2ccccc2)cn1` yielded a melting point of 100 to 105 °C.
In the case of `O=C(NOCc1ccccc1)c1cc(N2CCCCC2)ccn1`, the melting point is reported as 135 to 140 °C.
With `Cc1c(-c2cnccn2)sc2nc(N)[nH]c(=O)c12` the melting point was 280 to 300 °C.
`Cc1c(Cc2ccccc2)sc2nc(N)[nH]c(=O)c12` showed a melting point of 292 to 294 °C.
For `Cc1c(Cc2ccc(Cl)cc2)sc2nc(N)[nH]c(=O)c12`, the melting point was 300 to 320 °C.
In the case of `O=C(c1ccc(N2CCCC2)cn1)N(Cc1ccccc1)OCc1ccccc1`, the melting point is reported as 95 to 100 °C.
In the case of `O=C(c1cc2ccccc2cn1)N(Cc1ccccc1)OCc1ccccc1`, the melting point is reported as 70 to 75 °C.
Molecule `Cc1c(-c2ccccc2Cl)sc2nc(N)[nH]c(=O)c12` has a melting point of 334 to 336 °C.
Work on `O=C(NO)c1cc2ccccc2cn1` yielded a melting point of 160 to 165 °C.
Work on `CC(C)c1cc2c(=O)[nH]c(N)nc2s1` yielded a melting point of 347 to 349 °C.
`O=C(NO)c1ccc(N2CCCC2)cn1` gave a melting point of 220 to 225 °C.
For `Cc1c(-c2ccc(F)cc2)sc2nc(N)[nH]c(=O)c12`, the melting point was 325 to 335 °C.
`Cc1c(-c2cccc(F)c2)sc2nc(N)[nH]c(=O)c12` gave a melting point of 310 to 330 °C.
`Cc1cccc(-c2ccc(C(=O)N(O)Cc3ccccc3)nc2)c1` gave a melting point of 139 to 140 °C.
For `Cc1c(-c2ccc(F)cc2F)sc2nc(N)[nH]c(=O)c12`, the melting point was 330 to 350 °C.
`Cc1c(-c2cccc(Cl)c2F)sc2nc(N)[nH]c(=O)c12` gave a melting point of 330 to 350 °C.
For `Cc1c(-c2ccc(Cl)cc2F)sc2nc(N)[nH]c(=O)c12`, the melting point was 320 to 340 °C.
Work on `Cc1c(-c2c(F)ccc(Cl)c2F)sc2nc(N)[nH]c(=O)c12` yielded a melting point of 330 to 350 °C.
With `CN(OCc1ccccc1)C(=O)c1cc2ccccc2cn1` the melting point was 70 to 75 °C.
Work on `COc1cc(-c2sc3nc(N)[nH]c(=O)c3c2C)ccc1Cl` yielded a melting point of 312 to 322 °C.
Molecule `O=C(c1cc2ccccc2cn1)N(O)CCc1ccccc1` has a melting point of 90 to 95 °C.
Molecule `O=C(NOC(=O)c1cc(N2CCCCC2)ccn1)c1cc(N2CCCCC2)ccn1` has a melting point of 210 to 215 °C.
`Cc1c(-c2ccc(Cl)c(O)c2)sc2nc(N)[nH]c(=O)c12` showed a melting point of over 350 °C.
For `O=C(c1cc(N2CCCCC2)ccn1)N(O)CCCc1ccccc1`, the melting point was 125 to 130 °C.
In the case of `Cc1c(-c2ccc(Cl)c(C(=O)N(C)C)c2)sc2nc(N)[nH]c(=O)c12`, the melting point is reported as 300 to 320 °C.
With `CC(C)c1cccc(-c2ccc(C(=O)N(O)CCc3ccccc3)nc2)c1` the melting point was 110 to 115 °C.
Work on `Cc1c(-c2cccc(C#N)c2)sc2nc(N)[nH]c(=O)c12` yielded a melting point of over 350 °C.
Molecule `CC(C)c1cccc(-c2ccc(C(=O)NO)nc2)c1` has a melting point of 130 to 135 °C.
In the case of `Cc1c(-c2ccc(Cl)c(C#N)c2)sc2nc(N)[nH]c(=O)c12`, the melting point is reported as over 360 °C.
`CCONC(=O)c1cc(NCCCc2cccc(Cl)c2)ccn1` showed a melting point of 100 to 105 °C.
`Cc1c(-c2ccc(F)c(C#N)c2)sc2nc(N)[nH]c(=O)c12` gave a melting point of 330 to 350 °C.
For `CCONC(=O)c1cc(NCc2cccc(OCc3ccccc3)c2)ccn1.Cl`, the melting point was 70 to 75 °C.
In the case of `Cc1c(-c2cc(C#N)ccc2F)sc2nc(N)[nH]c(=O)c12`, the melting point is reported as 332 to 336 °C.
Molecule `Cc1c(-c2ccc(F)c(C#N)c2F)sc2nc(N)[nH]c(=O)c12` has a melting point of 360 to 380 °C.
With `Cc1c(-c2cc(C(F)(F)F)cc(C(F)(F)F)c2)sc2nc(N)[nH]c(=O)c12` the melting point was 344 to 347 °C.
Work on `Cc1c(-c2ccc(F)c(C(F)(F)F)c2)sc2nc(N)[nH]c(=O)c12` yielded a melting point of 310 to 330 °C.
`Cc1c(-c2cc(CN(C)C)ccc2F)sc2nc(N)[nH]c(=O)c12` showed a melting point of 230 to 250 °C.
Molecule `Cl.O=C(NO)c1cc(NS(=O)(=O)Cc2cccc(F)c2)ccn1` has a melting point of 195 to 200 °C.
`Cc1c(-c2ccc(Cl)nc2)sc2nc(N)[nH]c(=O)c12` showed a melting point of 230 to 250 °C.
In the case of `Cl.O=C(NO)c1cc(NS(=O)(=O)Cc2ccccc2F)ccn1`, the melting point is reported as 209 to 216 °C.
Work on `Cc1c(-c2ccnc(Cl)c2F)sc2nc(N)[nH]c(=O)c12` yielded a melting point of 330 to 350 °C.
For `Cl.O=C(NO)c1cc(NS(=O)(=O)Cc2cccc(Cl)c2)ccn1`, the melting point was 198 to 204 °C.
With `Cc1c(-c2ccc(F)nc2F)sc2nc(N)[nH]c(=O)c12` the melting point was 330 to 335 °C.
In the case of `Cl.O=C(NO)c1cc(NS(=O)(=O)Cc2ccccc2Cl)ccn1`, the melting point is reported as 215 to 220 °C.
In the case of `Cc1c(-c2ccnc(C(F)(F)F)c2)sc2nc(N)[nH]c(=O)c12`, the melting point is reported as 335 to 355 °C.
With `Cl.O=C(NO)c1cc(NS(=O)(=O)Cc2ccc(Cl)cc2)ccn1` the melting point was 210 to 230 °C.
Work on `Cl.O=C(NO)c1cc(NS(=O)(=O)Cc2cc(Cl)cc(Cl)c2)ccn1` yielded a melting point of 203 to 205 °C.
For `Cc1c(C2=CCNCC2)sc2nc(N)[nH]c(=O)c12`, the melting point was 290 to 310 °C.
For `Cc1sc2nc(N)[nH]c(=O)c2c1-c1ccc(F)cc1`, the melting point was 360 to 362 °C.
`O=C(c1ccc(N2CCCC2)cn1)N(O)Cc1ccccc1` showed a melting point of 115 to 120 °C.
In the case of `Cc1c(-c2ccccc2)sc2nc(NCCO)[nH]c(=O)c12`, the melting point is reported as 227 to 229 °C.
In the case of `Cl.O=C(NO)c1cc(NS(=O)(=O)Cc2cccc(Br)c2)ccn1`, the melting point is reported as 197 to 205 °C.
For `Cl.O=C(NO)c1cc(NS(=O)(=O)Cc2cccc(C(F)(F)F)c2)ccn1`, the melting point was 201 to 204 °C.
With `Cc1c(-c2ccccc2)sc2nc(NCCN)[nH]c(=O)c12` the melting point was 192 to 194 °C.
With `Cl.O=C(NO)c1cc(NS(=O)(=O)Cc2cccc3cccnc23)ccn1` the melting point was 220 to 228 °C.
In the case of `Cc1c(-c2ccccc2)sc2nc(NCCN(C)C)[nH]c(=O)c12`, the melting point is reported as 199 to 201 °C.
`Cl.O=C(NO)c1cc(NS(=O)(=O)C(c2ccccc2)c2ccccc2)ccn1` gave a melting point of 162 to 168 °C.
In the case of `Cc1c(-c2ccccc2)sc2nc(Nc3ccccc3)[nH]c(=O)c12`, the melting point is reported as 270 to 290 °C.
`Cc1c(-c2ccccc2)sc2nc(NC3CCCCC3)[nH]c(=O)c12` showed a melting point of 265 to 270 °C.
`O=C(Nc1ccnc(C(=O)NO)c1)c1ccccc1` gave a melting point of 175 to 184 °C.
With `O=C(c1cc(NS(=O)(=O)Cc2ccccc2)ccn1)N(O)Cc1ccccc1` the melting point was 190 to 195 °C.
In the case of `O=C(c1cc(NS(=O)(=O)c2ccccc2)ccn1)N(O)Cc1ccccc1`, the melting point is reported as 175 to 180 °C.
`Cc1c(-c2ccccc2)sc2nc(NCCNC(=O)CCN3CCN(C)CC3)[nH]c(=O)c12` gave a melting point of 235 to 245 °C.
Work on `Cl.O=C(c1cc(NS(=O)(=O)Cc2ccc(F)cc2)ccn1)N(O)Cc1ccccc1` yielded a melting point of 178 to 183 °C.
`Nc1nc2sc(Cc3ccccc3)cc2c(=O)[nH]1` gave a melting point of 294 to 296 °C.
`Cl.O=C(c1cc(NS(=O)(=O)Cc2cccc(F)c2)ccn1)N(O)Cc1ccccc1` gave a melting point of 111 to 113 °C.
`Cl.O=C(c1cc(NS(=O)(=O)Cc2cccc(Cl)c2)ccn1)N(O)Cc1ccccc1` showed a melting point of 115 to 125 °C.
`Nc1nc2sc(-c3ccccc3)c(Cl)c2c(=O)[nH]1` showed a melting point of over 350 °C.
`Cl.O=C(c1cc(NS(=O)(=O)Cc2cc(Cl)cc(Cl)c2)ccn1)N(O)Cc1ccccc1` gave a melting point of 189 to 194 °C.
For `Cl.O=C(c1cc(NS(=O)(=O)Cc2cccc(C(F)(F)F)c2)ccn1)N(O)Cc1ccccc1`, the melting point was 178 to 182 °C.
`O=C(c1cc(-c2ccccc2)ccn1)N(O)Cc1ccccc1` gave a melting point of 160 to 165 °C.
Molecule `O=C(c1cc(-c2ccc(Cl)cc2)ccn1)N(O)Cc1ccccc1` has a melting point of 190 to 195 °C.
Work on `CC(c1ccccc1)c1cc2c(=O)[nH]c(N)nc2s1` (stereo not drawn) yielded a melting point of 260 to 270 °C.
Work on `CN(O)C(=O)c1cc2ccccc2cn1` yielded a melting point of 110 to 115 °C.
In the case of `CN(C)CCNC(=O)c1cccc(-c2ccnc(C(=O)N(O)Cc3ccccc3)c2)c1`, the melting point is reported as 65 to 70 °C.
In the case of `CN(C)S(=O)(=O)c1cccc(-c2ccnc(C(=O)N(O)Cc3ccccc3)c2)c1`, the melting point is reported as 110 to 115 °C.
Work on `O=C(c1cc(-c2cccc(CO)c2)ccn1)N(O)Cc1ccccc1` yielded a melting point of 150 to 155 °C.
`O=C(c1cc(C2=CCCCC2)ccn1)N(O)Cc1ccccc1` gave a melting point of 118 to 122 °C.
Molecule `O=C(c1cc(C2CCCCC2)ccn1)N(O)Cc1ccccc1` has a melting point of 106 to 110 °C.
`CN1CC=C(c2ccnc(C(=O)N(O)Cc3ccccc3)c2)CC1` gave a melting point of 135 to 155 °C.
`CC(C)(C)OC(=O)N1CC=C(c2ccnc(C(=O)N(O)Cc3ccccc3)c2)CC1` showed a melting point of 125 °C.
With `O=C(c1cc2ccccc2cn1)N(O)Cc1ccccc1` the melting point was 120 to 125 °C.
With `O=C(c1cc(C2=CC3CCC(C2)N3)ccn1)N(O)Cc1ccccc1` (stereo not drawn) the melting point was 95 to 100 °C.
For `O=C(c1cc(-c2ccccc2)ccn1)N(O)Cc1ccc(F)cc1`, the melting point was 135 to 140 °C.
Work on `O=C(c1ccc(-c2ccccc2)cn1)N(O)Cc1ccccc1` yielded a melting point of 145 to 150 °C.
For `O=C(NO)c1ccc(-c2ccccc2)cn1`, the melting point was 175 to 180 °C.
`O=C(c1cc(N2CCCC(F)(F)C2)ccn1)N(O)Cc1ccccc1` showed a melting point of 140 to 145 °C.
Molecule `Cl.O=C(c1cc(N2CCC(F)(F)CC2)ccn1)N(O)Cc1ccccc1` has a melting point of 90 to 95 °C.
For `Cl.O=C(c1cc(N2CCC(F)(F)C2)ccn1)N(O)Cc1ccccc1`, the melting point was 162 to 166 °C.
Work on `CC(C)(C)OC(=O)NC1CCN(c2ccnc(C(=O)N(O)Cc3ccccc3)c2)CC1` yielded a melting point of 135 to 140 °C.
With `O=C(c1cc(N2CCC(N3CCCC3)CC2)ccn1)N(O)Cc1ccccc1` the melting point was 135 to 140 °C.
Work on `O=C(c1cc(C2=CCNCC2)ccn1)N(O)Cc1ccccc1` (as salt: hydrochloride) yielded a melting point of 140 to 150 °C.
For `Cl.O=C(NO)c1cc(N2CCCCC2)ccn1` (hydrate or solvate), the melting point was 200 to 202 °C.
With `CCONC(=O)c1ccc(-c2cccc(CN(C)Cc3ccccc3)c2)cn1.Cl` (hydrate or solvate) the melting point was 85 to 90 °C.
In the case of `CCONC(=O)c1cc(N2CCOCC2)ccn1.Cl` (hydrate or solvate), the melting point is reported as 200 to 202 °C.
Molecule `CCONC(=O)c1cc(N)ccn1.Cl` (hydrate or solvate) has a melting point of 114 to 120 °C.

Source: patent US20160297763A1, “Heteroaryl hydroxamic acid derivatives and their use in the treatment, amelioration or prevention of a viral disease” (priority 2011, published 2016)
